In ChEMBL document CHEMBL5512597, “Triazole hybrid compounds: A new frontier in malaria treatment” (Eur J Med Chem, 2023):
≈ marks a conversion by molar mass, not a printed value.

What was measured:
Plasmodium falciparum [1] = test: Antimalarial activity against Plasmodium falciparum 3D7 at asexual erythrocytic stage assessed as parasite growth inhibition measured after 24 hrs by [3H]-hypoxanthine incorporation assay; assay type: functional, organism-based
[2] = Cytotoxicity against human erythrocytes; assay type: toxicity, cell-based, Erythrocyte
Plasmodium falciparum [3] = test: Antimalarial activity against CQ-resistant Plasmodium falciparum Dd2; assay type: functional, organism-based
Plasmodium falciparum [4] = test: Antimalarial activity against CQ-resistant Plasmodium falciparum K1; assay type: functional, organism-based
Plasmodium falciparum [5] = test: Antimalarial activity against Plasmodium falciparum assessed as parasite growth inhibition incubated for 36 to 40 hrs by JSB staining based analysis; assay type: functional, organism-based
Plasmodium falciparum [6] = test: Antimalarial activity against Plasmodium falciparum; assay type: functional, organism-based
Plasmodium falciparum [7] = test: Antiplasmodial activity against CQ-sensitive Plasmodium falciparum NF54; assay type: functional, organism-based
Plasmodium falciparum [8] = test: Antimalarial activity against Plasmodium falciparum Dd2 infected in A+ human erythrocytes assessed as reduction in parasite growth incubated for 72 hrs by SYBR Green I staining based analysis; assay type: functional, organism-based; conditions: Dd2, Erythrocyte
Plasmodium falciparum [9] = test: Antimalarial activity against Plasmodium falciparum K1 infected in A+ human erythrocytes assessed as reduction in parasite growth incubated for 72 hrs by SYBR Green I staining based analysis; assay type: functional, organism-based; conditions: K1, Erythrocyte
Plasmodium falciparum [10] = test: Antimalarial activity against Plasmodium falciparum 3D7 infected in A+ human erythrocytes assessed as reduction in parasite growth incubated for 72 hrs by SYBR Green I staining based analysis; assay type: functional, organism-based; conditions: 3D7, Erythrocyte

**Q.** For `Cc1c(-c2ccccc2)c2ccc(OCc3cn(-c4ccc(S(N)(=O)=O)cc4)nn3)cc2oc1=O`, which IC50 (Plasmodium falciparum [1]) is on record?
**A.** 3680 nM

**Q.** Which results are given for `O=[N+]([O-])c1ccc(Cn2cc(-c3ccccc3CBr)nn2)cc1`?
**A.** CC50 [2]: > 100 µg/mL; IC50 (Plasmodium falciparum [3]): > 100 µg/mL

**Q.** Which IC50 (Plasmodium falciparum [4]) does the source give for `CO[C@@H]1C(=O)N(c2ccc(OCc3cn(Cc4ccccc4)nn3)cc2)[C@@H]1c1ccc(OCc2cn(Cc3ccccc3)nn2)cc1` here?
**A.** 850 nM

**Q.** Which IC50 (Plasmodium falciparum [5]) does the source give for `O=c1cc(OCc2cn(-c3ccc(OCc4ccccc4[N+](=O)[O-])cc3)nn2)c2ccccc2o1` here?
**A.** 0.98 µg/mL (≈ 2.08 µM)

**Q.** With `CC1=C(C(=O)Nc2ccc(F)cc2)C(c2ccc(OCc3cn(Cc4ccccc4)nn3)cc2)n2ncnc2N1` (centres undefined) as the compound, how does the IC50 (Plasmodium falciparum [6]) read?
**A.** 4360 nM

**Q.** Which IC50 (Plasmodium falciparum [1]) does the source give for `O=c1cc(OCc2cn(-c3ccc(S(=O)(=O)N4CCOCC4)cc3)nn2)c2ccccc2o1` here?
**A.** 34200 nM

**Q.** For `Clc1ccc2c(-n3cc(-c4ccccn4)nn3)ccnc2c1`, which IC50 (Plasmodium falciparum [7]) is on record?
**A.** 28000 nM

**Q.** With `O=c1ccc2ccc(OCc3cn(-c4ccc(OCc5ccc(Cl)cc5)cc4)nn3)cc2o1` as the compound, how does the IC50 (Plasmodium falciparum [5]) read?
**A.** 0.86 µg/mL (≈ 1.87 µM)

**Q.** Which results are given for `C[C@H]1[C@@H](OCCCn2cc(-c3ccnc4cc(Cl)ccc34)nn2)O[C@@H]2O[C@@]3(C)CC[C@H]4[C@H](C)CC[C@@H]1[C@@]24OO3`?
**A.** EC50 (Plasmodium falciparum [8]): 5.2 nM; EC50 (Plasmodium falciparum [9]): 3.8 nM; EC50 (Plasmodium falciparum [10]): 9.4 nM

**Q.** With `C[C@H]1[C@H](OC(=O)CCC(=O)OCCCCc2cn(-c3ccnc4cc(Cl)ccc34)nn2)O[C@@H]2O[C@@]3(C)CC[C@H]4[C@H](C)CC[C@@H]1[C@@]24OO3` as the compound, how does the EC50 (Plasmodium falciparum [8]) read?
**A.** 4.4 nM

**Q.** What about the EC50 (Plasmodium falciparum [9]) of the same compound?
**A.** 2.5 nM

**Q.** What about the EC50 (Plasmodium falciparum [10]) of the same compound?
**A.** 6.2 nM

**Q.** With `O=C1[C@@H](Oc2ccc(Cl)cc2Cl)[C@@H](c2ccc(OCc3cn(Cc4ccccc4)nn3)cc2)N1c1ccc(OCc2cn(Cc3ccccc3)nn2)cc1` as the compound, how does the IC50 (Plasmodium falciparum [4]) read?
**A.** < 970 nM

**Q.** For `O=[N+]([O-])c1cccc(Cn2cc(CO)nn2)c1`, which CC50 [2] is on record?
**A.** 87.4 µg/mL (≈ 373 µM)

**Q.** And the IC50 (Plasmodium falciparum [3])?
**A.** 0.64 µg/mL (≈ 2.73 µM)

**Q.** Which IC50 (Plasmodium falciparum [5]) does the source give for `O=c1ccc2ccc(OCc3cn(-c4ccc(OCc5ccc(F)cc5)cc4)nn3)cc2o1` here?
**A.** 0.49 µg/mL (≈ 1.11 µM)

**Q.** Which results are given for `OCc1cn(Cc2ccc(Cl)cc2)nn1`?
**A.** CC50 [2]: 88.6 µg/mL (≈ 396 µM); IC50 (Plasmodium falciparum [3]): 22.1 µg/mL (≈ 98.9 µM)

**Q.** With `CC1=C(C(=O)Nc2ccc(Cl)cc2)C(c2ccc(OCc3cn(Cc4ccccc4)nn3)cc2)n2c(nc3ccccc32)N1` (centres undefined) as the compound, how does the IC50 (Plasmodium falciparum [6]) read?
**A.** 1690 nM

**Q.** With `CC1=C(C(=O)Nc2ccccc2Cl)C(c2ccc(OCc3cn(Cc4ccccc4)nn3)cc2)n2ncnc2N1` (centres undefined) as the compound, how does the IC50 (Plasmodium falciparum [6]) read?
**A.** 1680 nM

**Q.** With `C[C@H]1[C@H](OC(=O)CCC(=O)OCCCc2cn(-c3ccnc4cc(Cl)ccc34)nn2)O[C@@H]2O[C@@]3(C)CC[C@H]4[C@H](C)CC[C@@H]1[C@@]24OO3` as the compound, how does the EC50 (Plasmodium falciparum [8]) read?
**A.** 4.6 nM

**Q.** And the EC50 (Plasmodium falciparum [9])?
**A.** 2.4 nM

**Q.** What about the EC50 (Plasmodium falciparum [10]) of the same compound?
**A.** 5.4 nM

**Q.** For `O=C1c2ccccc2C(=O)N1[C@H]1C(=O)N(c2ccc(OCc3cn(Cc4ccccc4)nn3)cc2)[C@@H]1c1ccc(OCc2cn(Cc3ccccc3)nn2)cc1`, which IC50 (Plasmodium falciparum [4]) is on record?
**A.** 1810 nM

**Q.** For `Cc1cccc(COc2ccc(-n3cc(COc4cc(=O)oc5ccccc45)nn3)cc2)c1`, which IC50 (Plasmodium falciparum [5]) is on record?
**A.** 1.05 µg/mL (≈ 2.39 µM)

**Q.** Which EC50 (Plasmodium falciparum [8]) does the source give for `C[C@H]1[C@@H](OCCCCc2cn(-c3ccnc4cc(Cl)ccc34)nn2)O[C@@H]2O[C@@]3(C)CC[C@H]4[C@H](C)CC[C@@H]1[C@@]24OO3` here?
**A.** 6.1 nM

**Q.** And the EC50 (Plasmodium falciparum [9])?
**A.** 3.7 nM

**Q.** What about the EC50 (Plasmodium falciparum [10]) of the same compound?
**A.** 8.4 nM

**Q.** For `CC1=C(C(=O)Nc2cccc(Cl)c2)C(c2ccc(OCc3cn(Cc4ccccc4)nn3)cc2)n2ncnc2N1` (centres undefined), which IC50 (Plasmodium falciparum [6]) is on record?
**A.** 2240 nM

**Q.** For `C[C@H]1[C@H](OC(=O)CCC(=O)OCc2cn(-c3ccnc4cc(Cl)ccc34)nn2)O[C@@H]2O[C@@]3(C)CC[C@H]4[C@H](C)CC[C@@H]1[C@@]24OO3`, which EC50 (Plasmodium falciparum [10]) is on record?
**A.** 5.3 nM

**Q.** With `O=C1[C@@H](Oc2ccccc2)[C@@H](c2ccc(OCc3cn(Cc4ccccc4)nn3)cc2)N1c1ccc(OCc2cn(Cc3ccccc3)nn2)cc1` as the compound, how does the IC50 (Plasmodium falciparum [4]) read?
**A.** < 970 nM

**Q.** For `O=[N+]([O-])c1ccc(Cn2cc(-c3ccccc3CO)nn2)cc1`, which CC50 [2] is on record?
**A.** 33.3 µg/mL (≈ 107 µM)

**Q.** And the IC50 (Plasmodium falciparum [3])?
**A.** > 100 µg/mL

**Q.** With `O=[N+]([O-])c1ccc(Cn2cc(CO)nn2)cc1` as the compound, how does the CC50 [2] read?
**A.** > 100 µg/mL

**Q.** What about the IC50 (Plasmodium falciparum [3]) of the same compound?
**A.** 0.62 µg/mL (≈ 2.65 µM)

**Q.** With `COc1ccc(COC(=O)Cn2cc(CSc3ccc(Br)cc3)nn2)cc1` as the compound, how does the IC50 (Plasmodium falciparum [6]) read?
**A.** 178 nM

**Q.** For `C=CCn1cc(COc2ccc([C@@H]3[C@H](Oc4ccccc4)C(=O)N3c3ccccc3)cc2)nn1`, which IC50 (Plasmodium falciparum [4]) is on record?
**A.** 6190 nM

**Q.** Which results are given for `C[C@H]1[C@H](OC(=O)CCC(=O)OCCc2cn(-c3ccnc4cc(Cl)ccc34)nn2)O[C@@H]2O[C@@]3(C)CC[C@H]4[C@H](C)CC[C@@H]1[C@@]24OO3`?
**A.** EC50 (Plasmodium falciparum [8]): 4.9 nM; EC50 (Plasmodium falciparum [9]): 2.6 nM; EC50 (Plasmodium falciparum [10]): 8 nM

**Q.** With `CC1=C(C(=O)Nc2ccc(C(F)(F)F)cc2)C(c2ccc(OCc3cn(Cc4ccccc4)nn3)cc2)n2c(nc3ccccc32)N1` (centres undefined) as the compound, how does the IC50 (Plasmodium falciparum [6]) read?
**A.** 2860 nM

**Q.** Which EC50 (Plasmodium falciparum [8]) does the source give for `C[C@H]1[C@@H](OCCc2cn(-c3ccnc4cc(Cl)ccc34)nn2)O[C@@H]2O[C@@]3(C)CC[C@H]4[C@H](C)CC[C@@H]1[C@@]24OO3` here?
**A.** 4.5 nM

**Q.** What about the EC50 (Plasmodium falciparum [9]) of the same compound?
**A.** 2 nM

**Q.** And the EC50 (Plasmodium falciparum [10])?
**A.** 8.8 nM

**Q.** With `CC1=C(C(=O)Nc2ccc(F)cc2)C(c2ccc(OCc3cn(Cc4ccccc4)nn3)cc2)n2c(nc3ccccc32)N1` (centres undefined) as the compound, how does the IC50 (Plasmodium falciparum [6]) read?
**A.** 990 nM

**Q.** For `CC1=C(C(=O)Nc2ccccc2Cl)C(c2ccc(OCc3cn(Cc4ccccc4)nn3)cc2)n2c(nc3ccccc32)N1` (centres undefined), which IC50 (Plasmodium falciparum [6]) is on record?
**A.** 2110 nM
